In PMC5218480 (PLoS ONE, 2017):

System: MV-4-11 cells
Test: Gene expression microarray analysis (Affymetrix PrimeView) and GSEA
Assay type: cell-based, human
Design: RFU PODN (11730768_x_at) / Fold change /veh PODN (11730768_x_at) / RFU LINC00158 (11744669_a_at) / Fold change /veh LINC00158 (11744669_a_at) / RFU DUSP10 (11751237_a_at) / Fold change /veh DUSP10 (11751237_a_at) / RFU ID3 (11757404_x_at) / Fold change /veh ID3 (11757404_x_at) / RFU PLEKHG5 (11737974_s_at) / Fold change /veh PLEKHG5 (11737974_s_at) / RFU LRRC4B (11730491_at) / Fold change /veh LRRC4B (11730491_at) / RFU GIMAP4 (11747438_a_at) / Fold change /veh GIMAP4 (11747438_a_at) / RFU KRT8 (11758183_x_at) / Fold change /veh KRT8 (11758183_x_at) / RFU CNN1 (11734310_a_at) / Fold change /veh CNN1 (11734310_a_at) / RFU VPS37D (11726825_at) / Fold change /veh VPS37D (11726825_at) / RFU C10orf10 (11716522_x_at) / Fold change /veh C10orf10 (11716522_x_at) / RFU KIR2DL2 /// KIR2DL4 /// KIR2DL5A /// KIR2DL5B /// KIR2DS1 /// KIR2DS2 /// KIR2DS3 /// KIR2DS4 /// KIR3DL3 /// KIR3DL3 /// KIR3DS1 (11738374_at) / Fold change /veh KIR2DL2 /// KIR2DL4 /// KIR2DL5A /// KIR2DL5B /// KIR2DS1 /// KIR2DS2 /// KIR2DS3 /// KIR2DS4 /// KIR3DL3 /// KIR3DL3 /// KIR3DS1 (11738374_at) / RFU C1QL1 (11718748_at) / Fold change /veh C1QL1 (11718748_at) / RFU TMPRSS4 (11747572_a_at) / Fold change /veh TMPRSS4 (11747572_a_at) / RFU HAMP (11756126_x_at) / Fold change /veh HAMP (11756126_x_at) / RFU RNFT2 (11725882_a_at) / Fold change /veh RNFT2 (11725882_a_at) / RFU NR4A2 (11747474_a_at) / Fold change /veh NR4A2 (11747474_a_at) / RFU ABCC12 (11746883_a_at) / Fold change /veh ABCC12 (11746883_a_at) / RFU TMEM136 (11760407_x_at) / Fold change /veh TMEM136 (11760407_x_at) / RFU CLDN22 /// WWC2 (11732394_at) / Fold change /veh CLDN22 /// WWC2 (11732394_at) / RFU HLA-DPB1 (11760878_x_at) / Fold change /veh HLA-DPB1 (11760878_x_at) / RFU SPINT1 (11716480_a_at) / Fold change /veh SPINT1 (11716480_a_at) / RFU GAP43 (11754022_s_at) / Fold change /veh GAP43 (11754022_s_at) / RFU A4GNT (11735810_at) / Fold change /veh A4GNT (11735810_at) / RFU PRB3 (11715151_x_at) / Fold change /veh PRB3 (11715151_x_at) / RFU TUBB4B (11761932_at) / Fold change /veh TUBB4B (11761932_at) / RFU CAPN14 (11732068_a_at) / Fold change /veh CAPN14 (11732068_a_at) / RFU TMCC2 (11721928_a_at) / Fold change /veh TMCC2 (11721928_a_at) / RFU IRGQ (11745062_a_at) / Fold change /veh IRGQ (11745062_a_at) / RFU FAM174B (11720279_a_at) / Fold change /veh FAM174B (11720279_a_at) / RFU TMPRSS4 (11748680_a_at) / Fold change /veh TMPRSS4 (11748680_a_at) / RFU FAM212B (11763350_a_at) / Fold change /veh FAM212B (11763350_a_at) / RFU PLEKHG5 (11743358_a_at) / Fold change /veh PLEKHG5 (11743358_a_at) / RFU ZSCAN30 (11745921_a_at) / Fold change /veh ZSCAN30 (11745921_a_at) / RFU CMKLR1 (11741424_a_at) / Fold change /veh CMKLR1 (11741424_a_at) / RFU LOC101060620 /// MAPK8IP1 (11723275_at) / Fold change /veh LOC101060620 /// MAPK8IP1 (11723275_at) / RFU SPTSSB (11747773_x_at) / Fold change /veh SPTSSB (11747773_x_at) / RFU PRSS12 (11739890_at) / Fold change /veh PRSS12 (11739890_at) / RFU BIN1 (11741810_x_at) / Fold change /veh BIN1 (11741810_x_at) / RFU WNT11 (11732464_a_at) / Fold change /veh WNT11 (11732464_a_at) / RFU C10orf10 (11716521_a_at) / Fold change /veh C10orf10 (11716521_a_at) / RFU C5orf56 (11738089_at) / Fold change /veh C5orf56 (11738089_at) / RFU CYB561 (11721691_x_at) / Fold change /veh CYB561 (11721691_x_at) / RFU ANKRD19P (11752326_a_at) / Fold change /veh ANKRD19P (11752326_a_at) / RFU OR2T12 /// OR2T33 /// OR2T8 (11738714_s_at) / Fold change /veh OR2T12 /// OR2T33 /// OR2T8 (11738714_s_at) / RFU VCAN (11748164_a_at) / Fold change /veh VCAN (11748164_a_at) / RFU JSRP1 (11732532_at) / Fold change /veh JSRP1 (11732532_at) / RFU KRTAP10-11 (11738290_x_at) / Fold change /veh KRTAP10-11 (11738290_x_at) / RFU MYO3A (11730013_a_at) / Fold change /veh MYO3A (11730013_a_at) / RFU EBF3 (11725865_a_at) / Fold change /veh EBF3 (11725865_a_at) / RFU CAMK2N1 (11719241_x_at) / Fold change /veh CAMK2N1 (11719241_x_at) / RFU C5orf56 (11738088_a_at) / Fold change /veh C5orf56 (11738088_a_at) / RFU OLFML3 (11715873_a_at) / Fold change /veh OLFML3 (11715873_a_at) / RFU LOC100653217 /// NTM (11731650_a_at) / Fold change /veh LOC100653217 /// NTM (11731650_a_at) / RFU MAPK11 (11762145_a_at) / Fold change /veh MAPK11 (11762145_a_at) / RFU FIZ1 (11724087_x_at) / Fold change /veh FIZ1 (11724087_x_at) / RFU OASL (11726364_x_at) / Fold change /veh OASL (11726364_x_at) / RFU SOX15 (11748057_x_at) / Fold change /veh SOX15 (11748057_x_at) / RFU CD79A (11719716_a_at) / Fold change /veh CD79A (11719716_a_at) / RFU HIST1H1D (11736915_at) / Fold change /veh HIST1H1D (11736915_at) / RFU CASKIN2 (11723855_a_at) / Fold change /veh CASKIN2 (11723855_a_at) / RFU LOC730098 (11760151_x_at) / Fold change /veh LOC730098 (11760151_x_at) / RFU OR4N2 (11742367_at) / Fold change /veh OR4N2 (11742367_at) / RFU PRRT2 (11749266_a_at) / Fold change /veh PRRT2 (11749266_a_at) / RFU SNX32 (11753110_a_at) / Fold change /veh SNX32 (11753110_a_at) / RFU CDHR5 (11726645_a_at) / Fold change /veh CDHR5 (11726645_a_at) / RFU RCAN1 (11760418_a_at) / Fold change /veh RCAN1 (11760418_a_at) / RFU FAM167A (11723789_a_at) / Fold change /veh FAM167A (11723789_a_at) / RFU FAM26E (11764081_at) / Fold change /veh FAM26E (11764081_at) / RFU ISYNA1 (11749810_s_at) / Fold change /veh ISYNA1 (11749810_s_at) / RFU ACY1 (11761880_at) / Fold change /veh ACY1 (11761880_at) / RFU 11764098_at / Fold change /veh 11764098_at / RFU SAMD14 (11745864_x_at) / Fold change /veh SAMD14 (11745864_x_at) / RFU NPB (11741838_a_at) / Fold change /veh NPB (11741838_a_at) / RFU TMPRSS6 (11731388_a_at) / Fold change /veh TMPRSS6 (11731388_a_at) / RFU KRTAP10-2 (11738614_at) / Fold change /veh KRTAP10-2 (11738614_at) / RFU ARHGAP8 /// PRR5-ARHGAP8 (11727945_x_at) / Fold change /veh ARHGAP8 /// PRR5-ARHGAP8 (11727945_x_at) / RFU KRTAP5-7 /// NADSYN1 (11734609_at) / Fold change /veh KRTAP5-7 /// NADSYN1 (11734609_at) / RFU RASL12 (11751679_a_at) / Fold change /veh RASL12 (11751679_a_at) / RFU CDKN2B (11736163_a_at) / Fold change /veh CDKN2B (11736163_a_at) / RFU PRF1 (11729649_at) / Fold change /veh PRF1 (11729649_at) / RFU, ZNF638 /// ZNF638-IT1 / Fold change vs veh, ZNF638 /// ZNF638-IT1 / RFU, PANK3 / Fold change vs veh, PANK3 / RFU, SH3YL1 / Fold change vs veh, SH3YL1 / RFU, ZEB2 / Fold change vs veh, ZEB2 / RFU, NRIP1 / Fold change vs veh, NRIP1 / RFU, PTTG1IP / Fold change vs veh, PTTG1IP / RFU, CAPN2 / Fold change vs veh, CAPN2 / RFU, MED14 / Fold change vs veh, MED14 / RFU, SNORA58 / Fold change vs veh, SNORA58 / RFU, C1orf63 / Fold change vs veh, C1orf63 / RFU, LRRFIP1 / Fold change vs veh, LRRFIP1 / RFU, NDUFAF7 / Fold change vs veh, NDUFAF7 / RFU, SLC12A2 / Fold change vs veh, SLC12A2 / RFU, IBTK / Fold change vs veh, IBTK / RFU, ESF1 / Fold change vs veh, ESF1 / Fold change vs veh, TMEM50B / RFU, TAOK1 / Fold change vs veh, TAOK1 / RFU, ACBD3 / Fold change vs veh, ACBD3 / RFU, TMA16 / Fold change vs veh, TMA16 / RFU, RWDD3 / Fold change vs veh, RWDD3 / RFU, BCAT1 / Fold change vs veh, BCAT1 / RFU, EDEM3 / Fold change vs veh, EDEM3 / RFU, TMEM33 / Fold change vs veh, TMEM33 / RFU, WDR75 / Fold change vs veh, WDR75 / RFU, AHCTF1 / Fold change vs veh, AHCTF1 / RFU, TFRC / Fold change vs veh, TFRC / RFU, ZDHHC17 / Fold change vs veh, ZDHHC17 / RFU, NOM1 / Fold change vs veh, NOM1 / RFU, ARL8B / Fold change vs veh, ARL8B / RFU, ZBTB11 / Fold change vs veh, ZBTB11 / RFU, TAMM41 / Fold change vs veh, TAMM41 / RFU, KIAA1704 /// LOC100996395 / Fold change vs veh, KIAA1704 /// LOC100996395 / RFU, ING1 / Fold change vs veh, ING1 / RFU, TRMT61B / Fold change vs veh, TRMT61B / RFU, FUBP3 / Fold change vs veh, FUBP3 / RFU, TP53 / Fold change vs veh, TP53 / RFU, TNKS2 / Fold change vs veh, TNKS2 / RFU, ZFP14 / Fold change vs veh, ZFP14 / RFU, ACTR2 / Fold change vs veh, ACTR2 / RFU, PPP3R1 / Fold change vs veh, PPP3R1 / RFU, PIK3R1 / Fold change vs veh, PIK3R1 / RFU, HNRNPA1 / Fold change vs veh, HNRNPA1 / RFU, RNF170 / Fold change vs veh, RNF170 / RFU, ZNF28 / Fold change vs veh, ZNF28 / RFU, RNGTT / Fold change vs veh, RNGTT / RFU, OGT / Fold change vs veh, OGT / RFU, BRD1 / Fold change vs veh, BRD1 / RFU, MARS / Fold change vs veh, MARS / RFU, ZNF655 / Fold change vs veh, ZNF655 / RFU, FAHD1 / Fold change vs veh, FAHD1 / RFU, BDP1 / Fold change vs veh, BDP1 / RFU, LRRCC1 / Fold change vs veh, LRRCC1 / RFU, ARID1A / Fold change vs veh, ARID1A / RFU, ZNF146 / Fold change vs veh, ZNF146 / RFU, ZNF330 / Fold change vs veh, ZNF330 / RFU, GPN3 / Fold change vs veh, GPN3 / RFU, C9orf123 / Fold change vs veh, C9orf123 / RFU, N4BP2L2 / Fold change vs veh, N4BP2L2 / RFU, ARFIP1 / Fold change vs veh, ARFIP1 / RFU, FAM179B / Fold change vs veh, FAM179B / RFU, BCL10 / Fold change vs veh, BCL10 / RFU, UHRF1BP1L / Fold change vs veh, UHRF1BP1L / RFU, BET1 / Fold change vs veh, BET1 / RFU, CNOT2 / Fold change vs veh, CNOT2 / RFU, ZNF268 / Fold change vs veh, ZNF268 / Fold change vs veh, ZNF507 / RFU, DGCR2 / Fold change vs veh, DGCR2 / RFU, WDSUB1 / Fold change vs veh, WDSUB1 / Fold change vs veh, HSP90B1 /// MIR3652 / RFU, ADSS / Fold change vs veh, ADSS / RFU, GK / Fold change vs veh, GK / RFU, ZNF148 / Fold change vs veh, ZNF148 / RFU, TAF9 / Fold change vs veh, TAF9 / RFU, SLC1A5 / Fold change vs veh, SLC1A5 / RFU, SLMO2 / Fold change vs veh, SLMO2 / RFU, ABCC4 / Fold change vs veh, ABCC4 / RFU, LOC101060439 /// RAP1B / Fold change vs veh, LOC101060439 /// RAP1B / RFU, RFX7 / Fold change vs veh, RFX7 / RFU, GTPBP10 / Fold change vs veh, GTPBP10 / RFU, CNEP1R1 / Fold change vs veh, CNEP1R1 / RFU, BIVM-ERCC5 /// ERCC5 / Fold change vs veh, BIVM-ERCC5 /// ERCC5 / RFU, ILF3 / Fold change vs veh, ILF3 / RFU 11762660_at / Fold change /veh 11762660_at / RFU VCAN (11757783_s_at) / Fold change /veh VCAN (11757783_s_at) / RFU DDX43 (11728927_at) / Fold change /veh DDX43 (11728927_at) / RFU KRT8 (11758188_x_at) / Fold change /veh KRT8 (11758188_x_at) / RFU NKD1 (11759106_at) / Fold change /veh NKD1 (11759106_at) / RFU SRD5A1 (11742802_a_at) / Fold change /veh SRD5A1 (11742802_a_at) / RFU TPSAB1 /// TPSB2 (11721975_s_at) / Fold change /veh TPSAB1 /// TPSB2 (11721975_s_at) / RFU GSTM3 (11746129_a_at) / Fold change /veh GSTM3 (11746129_a_at) / RFU IL23R (11737362_x_at) / Fold change /veh IL23R (11737362_x_at) / RFU TMEM51 (11727254_a_at) / Fold change /veh TMEM51 (11727254_a_at) / RFU PIWIL2 (11732686_x_at) / Fold change /veh PIWIL2 (11732686_x_at) / RFU ORM1 (11744905_x_at) / Fold change /veh ORM1 (11744905_x_at) / RFU CCDC152 (11743942_at) / Fold change /veh CCDC152 (11743942_at) / RFU ECM1 (11717891_a_at) / Fold change /veh ECM1 (11717891_a_at) / RFU IL23R (11748794_a_at) / Fold change /veh IL23R (11748794_a_at) / RFU TNFAIP8L3 (11732012_x_at) / Fold change /veh TNFAIP8L3 (11732012_x_at) / RFU MBOAT4 (11741988_at) / Fold change /veh MBOAT4 (11741988_at) / RFU 11764193_at / Fold change /veh 11764193_at / RFU TMEM53 (11763286_at) / Fold change /veh TMEM53 (11763286_at) / RFU MAGEB2 (11727129_at) / Fold change /veh MAGEB2 (11727129_at) / RFU TMEM200A (11744735_a_at) / Fold change /veh TMEM200A (11744735_a_at) / RFU CCDC152 (11751479_a_at) / Fold change /veh CCDC152 (11751479_a_at) / RFU FAM211A (11726209_a_at) / Fold change /veh FAM211A (11726209_a_at) / RFU RGS16 (11746705_a_at) / Fold change /veh RGS16 (11746705_a_at) / RFU VCAN (11755009_s_at) / Fold change /veh VCAN (11755009_s_at) / RFU RHOB (11743442_s_at) / Fold change /veh RHOB (11743442_s_at) / RFU RGS16 (11720943_a_at) / Fold change /veh RGS16 (11720943_a_at) / RFU RGS16 (11720944_at) / Fold change /veh RGS16 (11720944_at) / RFU, VPS4B / Fold change vs veh, VPS4B / RFU, CREB1 / Fold change vs veh, CREB1 / RFU, DNAJC13 / Fold change vs veh, DNAJC13 / RFU, GNAQ / Fold change vs veh, GNAQ / RFU, CDK5R1 / Fold change vs veh, CDK5R1 / RFU, ZRANB3 / Fold change vs veh, ZRANB3 / RFU, CUL4A / Fold change vs veh, CUL4A / RFU, CCNY / Fold change vs veh, CCNY / RFU, UFL1 / Fold change vs veh, UFL1 / RFU, COG3 / Fold change vs veh, COG3 / RFU, DIAPH2 / Fold change vs veh, DIAPH2 / RFU, SKA2 / Fold change vs veh, SKA2 / RFU, AFF3 / Fold change vs veh, AFF3 / RFU, LMF1 / Fold change vs veh, LMF1 / RFU, IPO11 / Fold change vs veh, IPO11 / RFU, DFFB / Fold change vs veh, DFFB / RFU, FOXP1 / Fold change vs veh, FOXP1 / RFU, CARD8 / Fold change vs veh, CARD8 / RFU, STRN3 / Fold change vs veh, STRN3 / RFU, ADK / Fold change vs veh, ADK / RFU, RASSF2 / Fold change vs veh, RASSF2 / RFU, WIPF1 / Fold change vs veh, WIPF1 / RFU, LARP1B / Fold change vs veh, LARP1B / RFU, RASA1 / Fold change vs veh, RASA1 / RFU, RB1 / Fold change vs veh, RB1 / RFU, PPFIA1 / Fold change vs veh, PPFIA1 / RFU, MAT2A / Fold change vs veh, MAT2A / RFU, CCT5 / Fold change vs veh, CCT5 / RFU, WDR92 / Fold change vs veh, WDR92 / RFU, CUX1 / Fold change vs veh, CUX1 / RFU, TTC7A / Fold change vs veh, TTC7A / RFU, TMEM135 / Fold change vs veh, TMEM135 / RFU, DEPTOR / Fold change vs veh, DEPTOR / RFU, CPM / Fold change vs veh, CPM / RFU, DNAJB6 / Fold change vs veh, DNAJB6 / RFU, CACNA2D3 / Fold change vs veh, CACNA2D3 / RFU, DTX4 / Fold change vs veh, DTX4 / RFU, TFCP2 / Fold change vs veh, TFCP2 / RFU, GMCL1 /// GMCL1P1 / Fold change vs veh, GMCL1 /// GMCL1P1 / RFU, AEBP2 / Fold change vs veh, AEBP2 / RFU, SNHG1 /// SNORD22 /// SNORD25 /// SNORD26 /// SNORD27 /// SNORD28 /// SNORD29 /// SNORD31 / Fold change vs veh, SNHG1 /// SNORD22 /// SNORD25 /// SNORD26 /// SNORD27 /// SNORD28 /// SNORD29 /// SNORD31 / Fold change (Aza/veh), C12orf56 (ProbeSet 11735607_a_at) / Fold change (ACY-1035/veh), C12orf56 (ProbeSet 11735607_a_at) / Fold change (Aza/veh), FGFR1OP (ProbeSet 11751329_s_at) / Fold change (ACY-1035/veh), FGFR1OP (ProbeSet 11751329_s_at) / Fold change (Aza/veh), VPS36 (ProbeSet 11739960_a_at) / Fold change (ACY-1035/veh), VPS36 (ProbeSet 11739960_a_at) / RFU SYPL1 (11715823_x_at) / Fold change /veh SYPL1 (11715823_x_at) / RFU IGFBP7 (11715501_s_at) / Fold change /veh IGFBP7 (11715501_s_at) / RFU REEP3 (11722064_at) / Fold change /veh REEP3 (11722064_at) / RFU IGLL1 (11728026_x_at) / Fold change /veh IGLL1 (11728026_x_at): dose or concentration left out as unconfirmed
Conditions: ProbeSet 11728443_a_at; LIST B

SMILES: Nc1ncn([C@@H]2O[C@H](CO)[C@@H](O)[C@H]2O)c(=O)n1 [azacitidine]
- Fold change vs veh, TAOK1: 0.96
